Laboratory results published in patent publication US12343332B2, “Treatment of a bacterial vaginal infection” (Adamed Pharma S.A., priority 2017, dated 2025).
Values after ≈ are worked out from the molar mass of the structure shown. “Also recorded” adds a separate entry of the source. Read-outs that look alike come from different tables or passages of the source.

Legend:
Format in all cases: cell-based
[1] = system: Atopobium vaginae ATCC BAA 55; experiment: MIC, macro dilution method for bacteria in a solid medium; conditions: for MIC: Fannyhessea vaginae, BAA55, 168 h, read-out: MIC value; for antibacterial activity (in words): against Atopobium vaginae
Method: (§1) Strains used in the study were Gardnerella vaginalis ATCC 14018, Atopobium vaginae ATCC BAA 55, Candida albicans ATCC 90028, and Candida [NT] 2001. […] To perform the assay, a pure, 48-hour strain reference culture was used, from which a bacterial suspension with a density of 1.0 McFarland in sterile saline was prepared. The suspension was plated onto Schaedler agar medium supplemented with 5% sheep blood (Becton Dickinson) and a test compound at the appropriate concentration. After incubation, the value MIC was read. Colony growth on the plate indicated no activity of the test compound at tested concentration. As the MIC value, the last lowest concentration as taken, at which there was no microbial growth. [table]

[2] = system: Gardnerella vaginalis ATCC 14018; experiment: as above; conditions: for MIC: Gardnerella vaginalis, ATCC14018, 72 h, read-out: MIC value; for antibacterial activity (in words): against Gardnerella vaginalis
Method: as §1

[3] = system: Candida glabrata ATCC 2001; experiment: MIC, macro dilution method for yeast-like fungi in a liquid medium; conditions: for MIC: Nakaseomyces glabratus, read-out: MIC value
Method: (§2) Strains used in the study were Gardnerella vaginalis ATCC 14018, Atopobium vaginae ATCC BAA 55, Candida albicans ATCC 90028, and Candida [NT] 2001. […] Liquid medium RPMI 1640 (Sigma-Aldrich) was used for fungi of the species Candida albicans ATCC 90028, and Candida [NT] 2001, in which 15 serial dilution were prepared in a range 500 μg/mL-0.03 μg/mL. From a pure 24-hour culture on Sabouraud solid medium, a fungal suspension having density of 0.5 McFarland in sterile saline. Next, the suspension was diluted, and was introduced into the RPMI 1640 medium yielding final concentrations of fungi 10^5 CFU/mL. Incubation was carried out for 24 hours in aerobic conditions in 37° C. Colony growth on the plate indicated no activity of the test compound at tested concentration. As the MIC value, the last lowest concentration as taken, at which there was no microbial growth

[4] = system: Candida albicans ATCC 90028; experiment: as above; conditions: for MIC: read-out: MIC value
Method: as §2

[5] = system: Atopobium vaginae ATCC BAA 55; experiment: Synergistic action at 2-fold lower concentrations than MIC, solid medium; conditions: for Synergy with Metronidazole / Synergy with Nystatin: Atopobium vaginae ATCC BAA 55, Furazidin 0.03 mg/L, Nitrofurantoin 0.98 mg/L, Nifuratel 1.95 mg/L; for Synergy with Metronidazole: Metronidazole 0.5 mg/L; for Synergy with Nystatin: Nystatin 250 mg/L; for synergistic effects with metronidazole (in words): against Atopobium vaginae
Method: (§3) To perform the assay, a pure, 48-hour strain reference culture was used, from which a bacterial suspension with a density of 1.0 McFarland in sterile saline was prepared. The suspension was plated onto Schaedler agar medium supplemented with 5% sheep blood (Becton Dickinson) and a test compound at the appropriate concentration. After incubation, the value MIC was read. Colony growth on the plate indicated no activity of the test compound at tested concentration. As the MIC value, the last lowest concentration as taken, at which there was no microbial growth. […] Lack of bacterial growth on the plate was interpreted as a synergic action. [table]

[6] = system: Gardnerella vaginalis ATCC 14018; experiment: as above; conditions: for Synergy with Metronidazole / Synergy with Nystatin: Gardnerella vaginalis ATCC 14018, Furazidin 0.25 mg/L, Nitrofurantoin 0.5 mg/L, Nifuratel 0.98 mg/L; for Synergy with Metronidazole: Metronidazole 125 mg/L; for Synergy with Nystatin: Nystatin 250 mg/L; for synergistic effects with metronidazole (in words): against Gardnerella vaginalis
Method: as §3

[7] = system: Candida glabrata ATCC 2001; experiment: Synergistic action at 2-fold lower concentrations than MIC, liquid medium; conditions: for Synergy with Metronidazole / Synergy with Nystatin: Candida glabrata ATCC 2001, each nitrofuran 250 mg/L; for Synergy with Metronidazole: Metronidazole 125 mg/L; for Synergy with Nystatin: Nystatin 0.98 mg/L
Method: (§4) Liquid medium RPMI 1640 (Sigma-Aldrich) was used for fungi of the species Candida albicans ATCC 90028, and Candida [NT] 2001, in which 15 serial dilution were prepared in a range 500 μg/mL-0.03 μg/mL. From a pure 24-hour culture on Sabouraud solid medium, a fungal suspension having density of 0.5 McFarland in sterile saline. Next, the suspension was diluted, and was introduced into the RPMI 1640 medium yielding final concentrations of fungi 10^5 CFU/mL. Incubation was carried out for 24 hours in aerobic conditions in 37° C. Colony growth on the plate indicated no activity of the test compound at tested concentration. As the MIC value, the last lowest concentration as taken, at which there was no microbial growth […] Lack of fungal growth on the plate was interpreted as a synergic action.

[8] = system: Candida albicans ATCC 90028; experiment: as above; conditions: for Synergy with Metronidazole / Synergy with Nystatin: Candida albicans ATCC 90028, each nitrofuran 250 mg/L; for Synergy with Metronidazole: Metronidazole 250 mg/L; for Synergy with Nystatin: Nystatin 0.98 mg/L
Method: as §4

[9] = Atopobium vaginae ATCC BAA 55, Schaedler agar, anaerobic, 37° C., 7 days
[10] = Gardnerella vaginalis ATCC 14018, Schaedler agar, microaerophilic, 37° C., 72 hours
[11] = Candida glabrata ATCC 2001, RPMI 1640, 24 hours, aerobic, 37° C.
[12] = Candida albicans ATCC 90028, RPMI 1640, 24 hours, aerobic, 37° C.
[13] = ATCC2001, Candida glabrata ATCC 2001, RPMI 1640, 24 hours, aerobic, 37° C.
[14] = ATCC90028, Candida albicans ATCC 90028, RPMI 1640, 24 hours, aerobic, 37° C.

Row | Structure (SMILES) | MIC value [1, 9] [µg/mL] | MIC value [2, 10] [µg/mL] | MIC value [3, 11] [µg/mL] | MIC value [4, 12] [µg/mL] | Synergy with Metronidazole [5] | Synergy with Nystatin [5] | synergistic effects with metronidazole (in words) [5] | Synergy with Metronidazole [6] | Synergy with Nystatin [6] | synergistic effects with metronidazole (in words) [6] | Synergy with Metronidazole [7] | Synergy with Nystatin [7] | Synergy with Metronidazole [8] | Synergy with Nystatin [8] | MIC [1, 9] [µg/mL] | antibacterial activity (in words) [1] | MIC [2, 10] [µg/mL] | antibacterial activity (in words) [2] | MIC [3, 13] [µg/mL] | MIC [4, 14] [µg/mL] | other results
1 | C[C@@H]1[C@H](O)[C@@H](C)/C=C/C=C/CC/C=C/C=C/C=C/C=C/C(O[C@H]2O[C@H](C)[C@@H](O)[C@H](N)[C@@H]2O)CC2O[C@](O)(CC(O)C(O)CCC(O)CC(O)CC(O)CC(=O)O[C@H]1C)CC(O)C2C(=O)O (stereo partly shown) [Nystatin] | 500 (≈ 540 µM) | 500 (≈ 540 µM) | 1.98 (≈ 2.14 µM) | 1.98 (≈ 2.14 µM) |  |  |  |  |  |  |  |  |  |  |  |  |  |  |  |  | 
2 | O=C1CN(/N=C/C=C/c2ccc([N+](=O)[O-])o2)C(=O)N1 [Furazidin] | <0.03 | 0.49 (≈ 1.85 µM) |  |  | + | + | synergy; also recorded: synergistic effects | + | + | synergy; also recorded: synergistic effects | + | + | + | − | < 0.03 | highest antibacterial activity in the group of nitrofuran derivatives | < 0.49 | highest antibacterial activity in the group of nitrofuran derivatives | 500 (≈ 1890 µM) | 500 (≈ 1890 µM) | synergistic effects with nystatin (in words) ([5]; on Atopobium vaginae): synergistic effect; synergistic effects with nystatin (in words) ([6]; on Gardnerella vaginalis): synergistic effect; synergistic effects with metronidazole (in words) ([7]; against Candida glabrata): synergy; synergistic effects with nystatin (in words) ([7]; against Candida glabrata): synergistic effects; synergistic effects with metronidazole (in words) ([8]; against Candida albicans): synergy
3 | Cc1ncc([N+](=O)[O-])n1CCO [Metronidazol, Metronidazole] |  |  |  |  |  |  |  |  |  |  |  |  |  |  | 0.98 (≈ 5.73 µM) | antibacterial activity | 250 (≈ 1460 µM) | antibacterial activity | 250 (≈ 1460 µM) | 500 (≈ 2920 µM) | 
4 | O=C1CN(/N=C/c2ccc([N+](=O)[O-])o2)C(=O)N1 [Nitrofurantion, Nitrofurantoin] | 1.95 (≈ 8.19 µM) | 0.98 (≈ 4.11 µM) | 500 (≈ 2100 µM) | 500 (≈ 2100 µM) | + | + | synergistic effects | + | + | synergistic effects | + | − | + | − |  | antibacterial activity |  | antibacterial activity |  |  | 
5 | CCC[C@@H]1C[C@@H](C(=O)N[C@@H]([C@H]2O[C@H](SC)[C@H](O)[C@@H](O)[C@H]2O)[C@H](C)Cl)N(C)C1 [Clindamycin] | <0.03 | 1.95 (≈ 4.59 µM) |  |  |  |  |  |  |  |  |  |  |  |  | < 0.03 |  | < 1.95 |  |  |  | 
6 | CSCC1CN(/N=C/c2ccc([N+](=O)[O-])o2)C(=O)O1 (stereo not shown) [Nifuratel] |  |  |  |  | − | + |  | − | + |  | + | − | + | − |  | antibacterial activity |  | antibacterial activity |  |  | MIC [1]: 3.9 µg/mL (≈ 13.7 µM); MIC [2]: 1.95 µg/mL (≈ 6.84 µM); MIC ([3]; ATCC2001, 24 h): 500 µg/mL (≈ 1750 µM); MIC ([4]; Candida albicans, ATCC90028, 24 h): > 500 µg/mL
